Assay results taken from patent US20180256673A1, “METHODS FOR TREATING FUNGAL INFECTIONS” (priority 2015, published 2018).
Converted amounts (≈) assume the structure as drawn. Where two headings read alike, the source gives them in different places. Starred links: 1 amine or outer side, 2 acyl side, 3 side chain; linkers in the order of their positions; H or OH if unused. Positions of bridges follow the written chain, without caps; N, C: chain ends. Non-standard residues stand in square brackets, D forms with d. Residues, ends and D or L forms follow the SMILES beside them. *: point of attachment. hTyr(3S-OH,4S-OH,3'-OSO3H) = N[C@H](C(=O)O)[C@H](O)[C@@H](O)c1ccc(O)c(OS(=O)(=O)O)c1; Orn(4R-OH,5R-OH) = O=C([C@H](C[C@@H](O)[C@@H](O)N[*:3])N[*:1])[*:2]; Pro(3S-OH,4S-Me) = C[C@H]1CN[C@H](C(=O)O)[C@H]1O; X1 = CCCCCOc1ccc(-c2cc(-c3ccc(C(=O)*)cc3)no2)cc1; Gln(3R-OH) = NC(=O)C[C@@H](O)[C@H](N)C(=O)O; Hyp = O=C(O)[C@@H]1C[C@@H](O)CN1

Legend:
Candida glabrata = experiment: microbe, parasite or virus in culture; format: cell-based
Candida parapsilosis = experiment: Broth microdilution of invasive fungal isolates (CLSI M27-A3/M38-A2); format: cell-based
Candida albicans = experiment: as above; format: cell-based
[1] = tested on: C. albicans vaginal isolates; experiment: Susceptibility testing of VVC clinical isolates at pH 7 and 4 (CLSI M27-A3); format: cell-based, Candida albicans; details: Candida albicans
[2] = tested on: Cryptococcus neoformans var. grubii; experiment: Broth microdilution of invasive fungal isolates (CLSI M27-A3/M38-A2); format: cell-based
Aspergillus fumigatus = experiment: Broth microdilution of invasive fungal isolates (CLSI M27-A3/M38-A2), MEC; format: cell-based; details: 56 isolates

CCCCCOc1ccc(-c2cc(-c3ccc(C(=O)N[C@H]4C[C@@H](O)[C@@H](O)NC(=O)[C@@H]5[C@@H](O)[C@@H](C)CN5C(=O)[C@H]([C@H](O)CC(N)=O)NC(=O)[C@H]([C@H](O)[C@@H](O)c5ccc(O)c(OS(=O)(=O)O)c5)NC(=O)[C@@H]5C[C@@H](O)CN5C(=O)[C@H]([C@@H](C)O)NC4=O)cc3)no2)cc1 [MCF, micafungin] (X1-[Orn(4R-OH,5R-OH)]T[Hyp][hTyr(3S-OH,4S-OH,3'-OSO3H)][Gln(3R-OH)][Pro(3S-OH,4S-Me)]; lactam 1-C)
Cumulative % of isolates inhibited at MIC 0.015 μg/mL (Candida glabrata): (74.0) % | Cumulative % of isolates inhibited at MIC 0.03 μg/mL (Candida glabrata): (95.0) % | Cumulative % of isolates inhibited at MIC 0.06 μg/mL (Candida glabrata): (95.0) % | Cumulative % of isolates inhibited at MIC 0.12 μg/mL (Candida glabrata): (95.0) % | Cumulative % of isolates inhibited at MIC 0.25 μg/mL (Candida glabrata): (95.0) % | Cumulative % of isolates inhibited at MIC 0.5 μg/mL (Candida glabrata): (95.0) % | Cumulative % of isolates inhibited at MIC 1 μg/mL (Candida glabrata): (95.0) % | Cumulative % of isolates inhibited at MIC 2 μg/mL (Candida glabrata): (98.0) % | Cumulative % of isolates inhibited at MIC 4 μg/mL (Candida glabrata): (100.0) % | Cumulative % of isolates inhibited at MIC ≤0.008 μg/mL (Candida glabrata): (1.0) % | MIC according to CLSI method (Candida glabrata): 4 µg/mL (≈ 3.15 µM) | Number of isolates inhibited at MIC 0.015 μg/mL (Candida glabrata): 73 | Number of isolates inhibited at MIC 0.03 μg/mL (Candida glabrata): 21 | Number of isolates inhibited at MIC 0.06 μg/mL (Candida glabrata): 0 | Number of isolates inhibited at MIC 0.12 μg/mL (Candida glabrata): 0 | Number of isolates inhibited at MIC 0.25 μg/mL (Candida glabrata): 0 | Number of isolates inhibited at MIC 0.5 μg/mL (Candida glabrata): 0 | Number of isolates inhibited at MIC 1 μg/mL (Candida glabrata): 0 | Number of isolates inhibited at MIC 2 μg/mL (Candida glabrata): 3 | Number of isolates inhibited at MIC 4 μg/mL (Candida glabrata): 2 | Number of isolates inhibited at MIC ≤0.008 μg/mL (Candida glabrata): 1 | MIC50 (Candida glabrata; Nakaseomyces glabratus, read-out: MIC50): 0.015 µg/mL (≈ 0.0118 µM) | MIC90 (Candida glabrata; Nakaseomyces glabratus, read-out: MIC90): 0.03 µg/mL (≈ 0.0236 µM) | MIC (Candida glabrata; Nakaseomyces glabratus, read-out: MIC according to CLSI method): 2 µg/mL (≈ 1.57 µM) | MIC (Candida glabrata; Nakaseomyces glabratus, read-out: MIC results): 2 to 4 µg/mL (≈ 1.57 to 3.15 µM) | Cumulative % of isolates inhibited at MIC 0.5 μg/mL (Candida parapsilosis; 92 isolates): (10.9) % | Cumulative % of isolates inhibited at MIC 1 μg/mL (Candida parapsilosis; 92 isolates): (72.8) % | Cumulative % of isolates inhibited at MIC 2 μg/mL (Candida parapsilosis; 92 isolates): (100.0) % | Number of isolates inhibited at MIC 0.5 μg/mL (Candida parapsilosis; 92 isolates): 10 | Number of isolates inhibited at MIC 1 μg/mL (Candida parapsilosis; 92 isolates): 57 | Number of isolates inhibited at MIC 2 μg/mL (Candida parapsilosis; 92 isolates): 25 | MIC50 (Candida parapsilosis; Lodderomyces parapsilosis): 1 µg/mL (≈ 0.787 µM) | MIC90 (Candida parapsilosis; Lodderomyces parapsilosis): 2 µg/mL (≈ 1.57 µM) | Cumulative % of isolates inhibited at MIC 0.015 μg/mL (Candida albicans; 251 isolates): (74.9) % | Cumulative % of isolates inhibited at MIC 0.03 μg/mL (Candida albicans; 251 isolates): (100.0) % | Cumulative % of isolates inhibited at MIC ≤0.008 μg/mL (Candida albicans; 251 isolates): (6.8) % | Number of isolates inhibited at MIC 0.015 μg/mL (Candida albicans; 251 isolates): 171 | Number of isolates inhibited at MIC 0.03 μg/mL (Candida albicans; 251 isolates): 63 | Number of isolates inhibited at MIC ≤0.008 μg/mL (Candida albicans; 251 isolates): 17 | MIC50 (Candida albicans; Candida albicans): 0.015 µg/mL (≈ 0.0118 µM) | MIC90 (Candida albicans; Candida albicans): 0.03 µg/mL (≈ 0.0236 µM) | MIC90 ([1]; 24 h, pH 4): 0.125 µg/mL (≈ 0.0984 µM) | MIC90 ([1]; 24 h, pH 7): 0.008 µg/mL (≈ 0.0063 µM) | MIC90 ([1]; 48 h, pH 4): 0.25 µg/mL (≈ 0.197 µM) | MIC ([1]; 48 h, pH 4, fluconazole-resistant isolate 1, pH 4): 0.016 µg/mL (≈ 0.0126 µM) | MIC ([1]; 48 h, pH 4, fluconazole-resistant isolate 2, pH 4): 0.016 µg/mL (≈ 0.0126 µM) | MIC ([1]; 48 h, pH 4, fluconazole-resistant isolate 3, pH 4): 0.016 µg/mL (≈ 0.0126 µM) | MIC ([1]; 48 h, pH 4, fluconazole-resistant isolate 4, pH 4): 0.03 µg/mL (≈ 0.0236 µM) | MIC ([1]; 48 h, pH 4, fluconazole-resistant isolate 5, pH 4): 0.016 µg/mL (≈ 0.0126 µM) | MIC ([1]; 48 h, pH 4, fluconazole-resistant isolate 6, pH 4): 0.03 µg/mL (≈ 0.0236 µM) | MIC ([1]; 48 h, pH 4, fluconazole-resistant isolate 7, pH 4): 0.25 µg/mL (≈ 0.197 µM) | MIC ([1]; 48 h, pH 4, fluconazole-resistant isolate 8, pH 4): 0.06 µg/mL (≈ 0.0472 µM) | MIC ([1]; 48 h, pH 4, fluconazole-resistant isolate 9, pH 4): 0.125 µg/mL (≈ 0.0984 µM) | MIC ([1]; 48 h, pH 4, fluconazole-resistant isolate 10, pH 4): 0.06 µg/mL (≈ 0.0472 µM) | MIC90 ([1]; 48 h, pH 7): 0.03 µg/mL (≈ 0.0236 µM) | MIC ([1]; 48 h, pH 7, fluconazole-resistant isolate 1, pH 7): 0.008 µg/mL (≈ 0.0063 µM) | MIC ([1]; 48 h, pH 7, fluconazole-resistant isolate 2, pH 7): 0.016 µg/mL (≈ 0.0126 µM) | MIC ([1]; 48 h, pH 7, fluconazole-resistant isolate 3, pH 7): 0.008 µg/mL (≈ 0.0063 µM) | MIC ([1]; 48 h, pH 7, fluconazole-resistant isolate 4, pH 7): 0.008 µg/mL (≈ 0.0063 µM) | MIC ([1]; 48 h, pH 7, fluconazole-resistant isolate 5, pH 7): 0.06 µg/mL (≈ 0.0472 µM) | MIC ([1]; 48 h, pH 7, fluconazole-resistant isolate 6, pH 7): 0.008 µg/mL (≈ 0.0063 µM) | MIC ([1]; 48 h, pH 7, fluconazole-resistant isolate 7, pH 7): 0.06 µg/mL (≈ 0.0472 µM) | MIC ([1]; 48 h, pH 7, fluconazole-resistant isolate 8, pH 7): 0.008 µg/mL (≈ 0.0063 µM) | MIC ([1]; 48 h, pH 7, fluconazole-resistant isolate 9, pH 7): 0.06 µg/mL (≈ 0.0472 µM) | MIC ([1]; 48 h, pH 7, fluconazole-resistant isolate 10, pH 7): 0.008 µg/mL (≈ 0.0063 µM) | Cumulative % of isolates inhibited at MIC >8 μg/mL ([2]; 19 isolates): (100.0) % | Number of isolates inhibited at MIC >8 μg/mL ([2]; 19 isolates): 19 | MIC50 ([2]; Cryptococcus neoformans): 8 µg/mL (≈ 6.3 µM) | MIC90 ([2]; Cryptococcus neoformans): 8 µg/mL (≈ 6.3 µM) | Cumulative % of isolates inhibited at MEC 0.015 μg/mL (Aspergillus fumigatus): (96.4) % | Cumulative % of isolates inhibited at MEC 0.03 μg/mL (Aspergillus fumigatus): (100.0) % | Cumulative % of isolates inhibited at MEC ≤0.008 μg/mL (Aspergillus fumigatus): (28.6) % | MEC50 (Aspergillus fumigatus): .015 µg/mL | MEC90 (Aspergillus fumigatus): .015 µg/mL | Number of isolates inhibited at MEC 0.015 μg/mL (Aspergillus fumigatus): 38 | Number of isolates inhibited at MEC 0.03 μg/mL (Aspergillus fumigatus): 2 | Number of isolates inhibited at MEC ≤0.008 μg/mL (Aspergillus fumigatus): 16
